Reference: DBAASP
In brackets after ≈: the same amount, converted by molar mass. Each block holds one compound with its values, some of them ahead of it.

Tests used:
Assay in all cases: ≥ marks a high value that may be exact or a test limit, other limits are often not marked, values filed in µg/mL are converted to µM
Acinetobacter baumannii = system: Acinetobacter baumannii
[1] = system: Enterobacter cloacae 2524
[2] = system: Enterobacter cloacae 6266
Escherichia coli 170 = system: Escherichia coli 170
Escherichia coli 5580 = system: Escherichia coli 5580
[3] = system: Escherichia coli ATCC 25922
[4] = system: Klebsiella pneumoniae 1625
[5] = system: Klebsiella pneumoniae 68228
[6] = system: Klebsiella pneumoniae 913
[7] = system: Pseudomonas aeruginosa 3599
[8] = system: Pseudomonas aeruginosa 4677
[9] = system: Pseudomonas aeruginosa 5106
Salmonella typhimurium = system: Salmonella typhimurium
[10] = system: Streptococcus pneumoniae ATCC 49619
[11] = system: Bacillus subtilis PCI 219
[12] = system: Escherichia coli NIHJ JC-2
[13] = system: Pseudomonas aeruginosa U-31
[14] = system: Staphylococcus aureus FDA 209P
[15] = system: Bacillus subtilis CGMCC 1.1627
[16] = system: Enterococcus faecalis CGMCC 1.125
[17] = system: Escherichia coli CGMCC 1.1580
Escherichia coli JM109 = system: Escherichia coli JM109
[18] = system: Lactiplantibacillus plantarum CGMCC 1.11
[19] = system: Lactiplantibacillus plantarum CGMCC 1.124
[20] = system: Lactiplantibacillus plantarum CGMCC 1.511
[21] = system: Lactiplantibacillus plantarum CGMCC 1.551
[22] = system: Lactiplantibacillus plantarum CGMCC 1.556
[23] = system: Lactococcus lactis ATCC 15577
[24] = system: Listeria monocytogenes ATCC 7648
[25] = system: Micrococcus luteus CGMCC 1.193
[26] = system: Pseudomonas aeruginosa CGMCC 1.647
[27] = system: Pseudomonas putida CGMCC 1.645
[28] = system: Salmonella sp. CGMCC 1.1552
[29] = system: Shigella dysenteriae ATCC 9753
[30] = system: Shigella flexneri CGMCC 1.1868
[31] = system: Staphylococcus aureus ATCC 6538P
[32] = system: Staphylococcus aureus CGMCC 1.128
[33] = system: Staphylococcus aureus CGMCC 1.2386
[34] = system: Staphylococcus aureus CGMCC 1.879
[35] = system: Enterobacter cloacae 6780
Carnobacterium mobile = system: Carnobacterium mobile
Fusarium oxysporum = system: Fusarium oxysporum

Structure (SMILES): CC[C@H](C)[C@H](NC(=O)[C@H](CC(C)C)NC(=O)[C@H](Cc1ccccc1)NC(=O)[C@H](CCC(N)=O)NC(=O)[C@H](CCC(N)=O)NC(=O)[C@H](CCCCN)NC(=O)[C@@H](NC(=O)[C@@H](N)CCCCN)[C@@H](C)O)C(=O)N[C@@H](CCCCN)C(=O)N[C@@H](C)C(=O)N[C@@H](CCC(N)=O)C(=O)N[C@H](C(=O)N[C@@H](CCC(N)=O)C(=O)N[C@@H](CC(C)C)C(=O)N[C@@H](Cc1ccccc1)C(=O)N[C@@H](CCCCN)C(=O)N[C@H](C(=O)N[C@@H](Cc1ccccc1)C(=O)NCC(=O)N[C@@H](Cc1ccc(O)cc1)C(=O)N[C@H](C(=O)N[C@@H](CC(C)C)C(=O)O)[C@@H](C)O)C(C)C)[C@@H](C)O [KTKQQFLIKAQTQLFKVFGYTL]
MIC [15]: 0.121 µM (≈ 0.318 µg/mL) | MIC [16]: 0.146 µM (≈ 0.384 µg/mL) | MIC [17]: 0.235 µM (≈ 0.618 µg/mL) | MIC (Escherichia coli JM109): 0.135 µM (≈ 0.355 µg/mL) | MIC [18]: 0.885 µM (≈ 2.33 µg/mL) | MIC [19]: 0.242 µM (≈ 0.637 µg/mL) | MIC [20]: 1.35 µM (≈ 3.56 µg/mL) | MIC [21]: 0.722 µM (≈ 1.9 µg/mL) | MIC [22]: 0.682 µM (≈ 1.79 µg/mL) | MIC [23]: 1.23 µM (≈ 3.22 µg/mL) | MIC [24]: 0.112 µM (≈ 0.295 µg/mL) | MIC [25]: 0.153 µM (≈ 0.403 µg/mL) | MIC [26]: 0.144 µM (≈ 0.379 µg/mL) | MIC [27]: 0.075 µM (≈ 0.197 µg/mL) | MIC [28]: 0.136 µM (≈ 0.358 µg/mL) | MIC [29]: 0.185 µM (≈ 0.487 µg/mL) | MIC [30]: 0.135 µM (≈ 0.355 µg/mL) | MIC [31]: 0.178 µM (≈ 0.468 µg/mL) | MIC [32]: 0.218 µM (≈ 0.574 µg/mL) | MIC [33]: 0.21 µM (≈ 0.553 µg/mL) | MIC [34]: 0.132 µM (≈ 0.347 µg/mL)

Structure (SMILES): CSCC[C@H](N)C(=O)N[C@@H](C)C(=O)N[C@@H](CO)C(=O)N[C@@H](CCCN=C(N)N)C(=O)N[C@@H](C)C(=O)N[C@@H](C)C(=O)N[C@@H](CCCN=C(N)N)C(=O)N[C@@H](CC(C)C)C(=O)N[C@@H](C)C(=O)N[C@@H](C)C(=O)N[C@@H](CCCN=C(N)N)C(=O)N[C@@H](CC(C)C)C(=O)N[C@@H](C)C(=O)N[C@@H](CCCN=C(N)N)C(=O)N[C@@H](CC(C)C)C(=O)N[C@@H](C)C(=O)N[C@@H](CC(C)C)C(=O)N[C@@H](CCCN=C(N)N)C(=O)N[C@@H](C)C(=O)N[C@@H](CC(C)C)C(=O)O [MASRAARLAARLARLALRAL]
MIC (Carnobacterium mobile): 0.0025 µM (≈ 0.00538 µg/mL) | MIC (Fusarium oxysporum): 0.1 µM (≈ 0.215 µg/mL)

The next lines start with the values.

MIC (Acinetobacter baumannii): 3.1 µM (≈ 9.55 µg/mL) | MIC [1]: 6.2 µM (≈ 19.1 µg/mL) | MIC [2]: 3.1 µM (≈ 9.55 µg/mL) | MIC (Escherichia coli 170): 3.1 µM (≈ 9.55 µg/mL) | MIC (Escherichia coli 5580): 1.6 µM (≈ 4.93 µg/mL) | MIC [3]: 1.6 µM (≈ 4.93 µg/mL) | MIC [4]: 1.6 µM (≈ 4.93 µg/mL) | MIC [5]: 6.2 µM (≈ 19.1 µg/mL) | MIC [6]: 3.1 µM (≈ 9.55 µg/mL) | MIC [7]: ≥ 50 µM | MIC [8]: 25 µM (≈ 77 µg/mL) | MIC [9]: 12 µM (≈ 37 µg/mL) | MIC (Salmonella typhimurium): 3.15 µM (≈ 9.7 µg/mL) | MIC [10]: 25 µM (≈ 77 µg/mL)
Structure (SMILES): CC[C@H](C)[C@H](NC(=O)CN)C(=O)N[C@@H](CC(C)C)C(=O)N[C@@H](CCCCN)C(=O)N[C@H](C(=O)N[C@H](C(=O)N[C@@H](CCCCN)C(=O)N[C@@H](CO)C(=O)N[C@H](C(=O)N[C@@H](C)C(=O)N[C@@H](CO)C(=O)N[C@@H](CCCCN)C(=O)N[C@H](C(=O)N[C@@H](C)C(=O)N[C@@H](CC(N)=O)C(=O)N[C@H](C(=O)N[C@H](C(=O)N[C@@H](CCC(N)=O)C(=O)N[C@@H](CCCCN)C(=O)N[C@@H](CC(C)C)C(=O)N[C@@H](CCCCN)C(=O)N[C@@H](CCCN=C(N)N)C(=O)N[C@@H](CCCCN)C(=O)N[C@@H](C)C(=O)N[C@@H](CCCCN)C(=O)N[C@@H](CC(N)=O)C(=O)N[C@@H](C)C(=O)N[C@H](C(=O)N[C@@H](C)C(=O)O)C(C)C)C(C)C)[C@@H](C)O)C(C)C)[C@@H](C)CC)[C@@H](C)CC)[C@@H](C)O [GILKTIKSIASKVANTVQKLKRKAKNAVA]

MIC [11]: ≥ 43.6 µM | MIC [12]: ≥ 43.6 µM | MIC [13]: ≥ 43.6 µM | MIC [14]: ≥ 43.6 µM
Structure (SMILES): CC(C)C[C@H](NC(=O)[C@H](CCCCN)NC(=O)[C@H](CCCCN)NC(=O)[C@H](CC(C)C)NC(=O)[C@H](CC(C)C)NC(=O)[C@H](CCCCN)NC(=O)[C@H](CCCCN)NC(=O)[C@H](Cc1c[nH]c2ccccc12)NC(=O)[C@H](CCCCN)NC(=O)[C@H](CCCCN)NC(=O)[C@H](CC(C)C)NC(=O)[C@H](CC(C)C)NC(=O)[C@H](CCCCN)NC(=O)[C@H](CCCCN)NC(=O)[C@H](CC(C)C)NC(=O)[C@H](CCCCN)NC(=O)[C@@H](N)CCCCN)C(=O)N[C@@H](CCCCN)C(=O)O [KKLKKLLKKWKKLLKKLK]

MIC (Acinetobacter baumannii): ≥ 50 µM | MIC [1]: 25 µM (≈ 47.4 µg/mL) | MIC [35]: ≥ 50 µM | MIC (Escherichia coli 170): ≥ 50 µM | MIC [3]: > 50 µM | MIC [6]: ≥ 50 µM | MIC [8]: ≥ 50 µM
Structure (SMILES): CC(C)C[C@H](NC(=O)[C@H](CCCCN)NC(=O)[C@H](CCC(N)=O)NC(=O)[C@@H](NC(=O)[C@@H](NC(=O)[C@H](CC(N)=O)NC(=O)[C@H](C)NC(=O)[C@@H](NC(=O)[C@@H](N)CCCCN)C(C)C)[C@@H](C)O)C(C)C)C(=O)N[C@@H](CCCCN)C(=O)N[C@@H](CCCN=C(N)N)C(=O)N[C@@H](CCCCN)C(=O)N[C@@H](C)C(=O)N[C@@H](CCCCN)C(=O)N[C@@H](CC(N)=O)C(=O)N[C@@H](C)C(=O)N[C@H](C(=O)O)C(C)C [KVANTVQKLKRKAKNAV]
